The values below come from patent US4507318A, “1-Aryl 2-aminomethyl cyclopropane carboxylates (Z) as drugs in the treatment of pain” (Pierre Fabre S.A., priority 1981, dated 1985).

SMILES strings stand for the structures. Counter-ions that a name gives are not always drawn. Like-named read-outs stand apart in the source and are kept apart here.

Usually solubility stands for how much of the substance goes into solution per volume. Lower therefore signals little dissolved substance. Usually ED50 stands for the midpoint of the dose-response relation.

The nature of one series: Solubility in water. Format: physicochemical.
Series [1] has as its system mice. Briefly: Writhing Syndrome (P.B.Q.), analgesic activity after I.P. p-benzoquinone. Format: in vivo. Conditions: Mus musculus, po, P.O., read-out: Writhing Syndrome PBQ-ED50 (P.O.). As to the method:
(a) Writhing Syndrome (P.B.Q.)
After I.P. administration of p-benzoquinone to mice, the products were tested by the method of R. OKUN, S. C. LIDDON and L. LASAGNA, J. Pharmacol. Exptl. Therap., 1963, 139, 107. The results are expressed in ED50 in Table 1.
For orientation: Writhing tests count abdominal constrictions after an irritant is injected.

A short description of series [2]: Toxicity study (ED50 orally and intraperitoneally, method of Miller and Tainter). The conditions noted are these: in vivo. Here is the method:
The most interesting compounds of the present invention were subjected to toxicity studies.
The ED50 was determined orally and intraperitoneally and calculated by the method of MILLER and TAINTER (Proc. Soc. Exper. […]. 1944, 57, 261).

Series [3] relates to mice. Briefly: Hot Plate, analgesic activity. The class given is in vivo. Here is the method:
The products were tested subcutaneously in mice (50 mg/kg) by the method of N. B. EDDY and D. LEIMBACH, J. Pharm. Exptl. Therap., 1953, 107, 385.

Setting [4] is: ip, intraperitoneally, read-out: ED50 intraperitoneally.
Where [5] appears, read: po, per os, read-out: ED50 per os.

`CCOC(=O)[C@]1(c2ccccc2)C[C@@H]1CN1CCCC1` (relative stereo) [Example 1, 1-phenyl 1-ethoxycarbonyl-2-pyrrolidinomethyl cyclopropane hydrochloride (Z)] gave a solubility in the series “Solubility in water” of 500 mg/mL.

In the case of `CCOC(=O)[C@]1(c2ccccc2)C[C@@H]1CNCCc1ccccc1` (relative stereo) [Example 2, Hydrochloride of 1-phenyl-1-ethoxycarbonyl-2-(2-phenylethyl)amino-methyl cyclopropane (Z)], in the series “Solubility in water”, the solubility stood at 500 mg/mL.

In “Solubility in water”, `CCOC(=O)[C@]1(c2ccccc2)C[C@@H]1CNC` (relative stereo) [Example 3, Hydrochloride of 1-phenyl 1-ethoxycarbonyl-2-methyl amino-methyl cyclopropane (Z)] registered a solubility of 500 mg/mL.

Compound `CCOC(=O)[C@]1(c2ccccc2)C[C@@H]1CN(CC)CC` (relative stereo) [Example 4, Hydrochloride of 1-phenyl 1-ethoxycarbonyl-2-diethyl amino-methyl cyclopropane (Z)] showed a solubility in the series “Solubility in water” of 500 mg/mL.

In “Solubility in water”, `CCOC(=O)[C@]1(c2ccccc2)C[C@@H]1CN(C)Cc1ccccc1` (relative stereo) [Example 5, Hydrochloride of 1-phenyl 1-ethoxycarbonyl-2-(benzylmethylaminomethyl)cyclopropane (Z)] came in with a solubility of 100 mg/mL.

The compound `CCOC(=O)[C@]1(c2ccccc2)C[C@@H]1CNC(C)(C)C` (relative stereo) [Example 6, Hydrochloride of 1-phenyl 1-ethoxycarbonyl-2-tertbutylamino-methyl cyclopropane (Z)] came in with a solubility in “Solubility in water” of 170 mg/mL.

On to `CCOC(=O)[C@]1(c2ccccc2)C[C@@H]1CN(CCO)CCO` (relative stereo) [Example 7, Maleate of 1-phenyl 1-ethoxycarbonyl 2-di(2'-hydroxyethyl)amino-methyl cyclopropane (Z)], for which, in “Solubility in water”, the solubility is 500 mg/mL.

As for `CCOC(=O)[C@]1(c2ccccc2)C[C@@H]1CN1CCN(c2ccccc2)CC1` (relative stereo) [Example 8, Dihydrochloride of 1-phenyl 1-ethoxycarbonyl 2-(4'-phenyl-piperazinomethyl)cyclopropane (Z)], in “Solubility in water”, the solubility was found to be 5 mg/mL.

As to `CCOC(=O)[C@]1(c2ccccc2)C[C@@H]1CN1CCOCC1` (relative stereo) [Example 9, Hydrochloride of 1-phenyl 1-ethoxycarbonyl 2-morpholino methyl cyclopropane (Z)], in “Solubility in water”, the solubility stood at 500 mg/mL.

`CCOC(=O)[C@]1(c2ccccc2)C[C@@H]1CN(C)CCO` (relative stereo) [Example 10, Fumarate of 1-phenyl 1-ethoxycarbonyl 2-N-(2'-hydroxyethyl)N-methyl amino-methyl cyclopropane (Z)] had a solubility in the series “Solubility in water” of 80 mg/mL.

For `C#CC(C)(C)NC[C@H]1C[C@]1(C(=O)OCC)c1ccccc1` (relative stereo) [Example 12, Hydrochloride of 1-phenyl 1-ethoxycarbonyl-2-(1'-1'-dimethyl-2'-propynylaminomethyl)cyclopropane (Z)], the solubility in “Solubility in water” amounted to 30 mg/mL.

Take `CCOCCNC[C@H]1C[C@]1(C(=O)OCC)c1ccccc1` (relative stereo) [Example 13, Hydrochloride of 1-phenyl 1-ethoxycarbonyl 2-(2'-ethoxyethylaminomethyl)cyclopropane (Z)]: in the series “Solubility in water”, the solubility was 500 mg/mL.

`CCOC(=O)[C@]1(c2ccccc2)C[C@@H]1CNCc1ccccc1` (relative stereo) [Example 14, Hydrochloride of 1-phenyl-1-ethoxycarbonyl 2-benzyl amino methyl cyclopropane (Z)] registered a solubility in the series “Solubility in water” of 10 mg/mL.

For the compound `CCOC(=O)[C@]1(c2ccccc2)C[C@@H]1CNC(C)C` (relative stereo) [Example 15, Hydrochloride of 1-phenyl 1-ethoxycarbonyl 2-isopropyl aminomethyl cyclopropane (Z)], the solubility in the series “Solubility in water” amounted to 500 mg/mL.

`CCOC(=O)[C@]1(c2ccccc2)C[C@@H]1CN(C(C)C)C(C)C` (relative stereo) [Example 16, Maleate of 1-phenyl 1-ethoxycarbonyl 2-diisopropyl aminomethyl cyclopropane (Z)] came in with a solubility in “Solubility in water” of 100 mg/mL.

`CCOC(=O)[C@]1(c2ccccc2)C[C@@H]1CN(C)CC` (relative stereo) [Example 17, Fumarate of 1-phenyl 1-ethoxycarbonyl 2-(N-methyl-N-ethyl-amino)methyl cyclopropane (Z)]: in “Solubility in water”, the solubility was found to be 500 mg/mL.

`CCCCCN(C)C[C@H]1C[C@]1(C(=O)OCC)c1ccccc1` (relative stereo) [Example 18, Fumarate of 1-phenyl 1-ethoxycarbonyl 2-(N-methyl-N-pentylamino)methyl cyclopropane (Z)]: the solubility in “Solubility in water” turned out to be 30 mg/mL.

Compound `CCOC(=O)[C@]1(c2ccccc2)C[C@@H]1CN(C)CCN(C)C` (relative stereo) [Example 21, Dihydrochloride of 1-phenyl 1-ethoxycarbonyl-2-(N-methyl N-(2'-dimethylamino)ethyl)aminomethyl cyclopropane (Z)] had a solubility in “Solubility in water” of 500 mg/mL.

As for `CCOC(=O)[C@]1(c2ccccc2)C[C@@H]1CN(C)CCc1ccccc1` (relative stereo) [Example 30], in the series with mice [1], the ED50 was determined as 80 mg/kg. Also, the LD50 in series [2] (setting [4]) was 110 mg/kg; in series [2] (setting [5]), 1000 mg/kg. Further, the “Hot Plate reaction time” value with mice [3] (50 mg/kg SC, mice) was determined as 20 s.

The compound `COC(=O)[C@]1(c2ccccc2)C[C@@H]1CN(C)C` (relative stereo) [Example 34, Hydrochloride of 1-phenyl 1-methoxycarbonyl 2-dimethyl-amino-methyl cyclopropane (Z)] had a solubility in “Solubility in water” of 500 mg/mL.

In the series “Solubility in water”, `CCCOC(=O)[C@]1(c2ccccc2)C[C@@H]1CN(C)C` (relative stereo) [Example 35, Fumarate of 1-phenyl 1-propyloxycarbonyl 2-dimethyl aminomethyl cyclopropane (Z)] returned a solubility of 150 mg/mL.

With `CC(C)OC(=O)[C@]1(c2ccccc2)C[C@@H]1CN(C)C` (relative stereo) [Example 36, Hydrochloride of 1-phenyl 1-isopropyloxy-carbonyl 2-dimethylamino methyl cyclopropane (Z)], the ED50 with mice [1] stood at 17 mg/kg. For the same compound, the figures for the LD50 in series [2] (setting [4]) and in series [2] (setting [5]) were 130 mg/kg and 400 mg/kg, respectively. Also, the “Hot Plate reaction time” value in the series on mice [3] (50 mg/kg SC, mice) is 40 s.

In the case of `CN(C)C[C@H]1C[C@]1(C(=O)OCc1ccccc1)c1ccccc1` (relative stereo) [Example 37, Hydrochloride of 1-phenyl 1-benzyloxy carbonyl-2-dimethyl aminomethyl cyclopropane (Z)], the ED50 in the series with mice [1] is 92 mg/kg. The LD50 in series [2] (setting [4]) worked out at 130 mg/kg; in series [2] (setting [5]), 1000 mg/kg. Moreover, in the series with mice [3] (50 mg/kg SC, mice), the “Hot Plate reaction time” value turned out to be 30 s.

With `CCOC(=O)[C@]1(c2ccc(Cl)cc2)C[C@@H]1CN(C)C` (relative stereo) [Example 41, 1-(4'-chlorophenyl) 1-ethoxycarbonyl 2-dimethylaminomethyl cyclopropane (Z) hydrochloride], the 50% effective dose (ED50) in the series on mice [1] came to 19 mg/kg. Also, the LD50 in series [2] (setting [4]) was 120 mg/kg; in series [2] (setting [5]), 400 mg/kg. Besides, in the series on mice [3] (50 mg/kg SC, mice), the “Hot Plate reaction time” value turned out to be 39 s.

Turning to `CCC(=O)O[C@](Cc1ccccc1)(c1ccccc1)[C@H](C)CN(C)C` [Dextropropoxyphene, reference compound], the ED50 in the series on mice [1] was determined as 30 mg/kg. The “Hot Plate reaction time” value in the series with mice [3] (mouse, in vivo) is 30 s.
